Results: US20160244436A1, “NOVEL FUNCTIONALIZED 5-(PHENOXYMETHYL)-1,3-DIOXANE ANALOGS EXHIBITING CYTOCHROME P450 INHIBITION AND THEIR METHOD OF USE” (CORTENDO AB (PUBL), priority 2013, published 2016)

Test: Pharmacokinetic studies in the guinea pig (1 mg/kg IV, 10 mg/kg oral)
Assay type: in vivo
Description: Pharmacokinetic studies in the guinea pig were run using 1 mg/kg IV dosing (20% DMA, 40% TEG, 40% water) and 10 mg/kg oral dosing (2% Tween-80, 98% HPMC (1% water)).

CC(=O)N1CCN(c2ccc(CO[C@H]3CO[C@](Cn4ccnc4)(c4ccc(Cl)cc4Cl)OC3)cc2)CC1 [drawing 113]
bioavailability (in vivo, 10 mg/kg oral vs 1 mg/kg IV): 184% | AUC0-inf (oral, 10 mg/kg): 14891 ng·h/mL | AUC0-last (oral, 10 mg/kg): 8231 ng·h/mL | AUCExtra (oral, 10 mg/kg): 43.93% | Cmax (oral, 10 mg/kg): 1018 ng/mL | MRT0-last (oral, 10 mg/kg): 5.56 h | Tmax (oral, 10 mg/kg): 3 h | t1/2 (oral, 10 mg/kg): 6.0 h | DNAUC (0-inf) (oral, 10 mg/kg, dose-normalised AUC): 823.1 | Rsq (oral, 10 mg/kg, fit of terminal phase): 0.91
